Results on eight molecules are retold here after PMC4761355, “Pre-clinical evaluation of eight DOTA coupled gastrin-releasing peptide receptor (GRP-R) ligands for in vivo targeting of receptor-expressing tumors” (EJNMMI Research, 2016).

Series [1] has as its system PC-3 xenografts. As to the kind of experiment: Biodistribution in nude mice bearing subcutaneous PC-3 xenografts. It is filed as in vivo, CD1 nude mice. The protocol:
(§1) For animal experiments, the institutional and national guide for the care and use of laboratory animals was followed. CD1 nude mice (n = 36, female, 6 weeks old, 18-22 g body weight) were subcutaneously injected in the right thigh with 2 × 10^6 PC-3 cells in 300 μl of a medium-to-matrigel solution (50:50, v:v, BD Biosciences). […] DOTA-PEG4-BN conjugates were radiolabelled with ^111In as described elsewhere, and 1.85 MBq (0.25 μg, 7.4 MBq/μg in 100 μl NaCl) of radiopharmaceutical was injected in the tail vein of each animal. Injected dose was determined by counting the syringe before and after injection. At 1 h post injection, three mice per group were anesthetized and placed on a horizontal support for planar imaging. The same procedure was repeated at 6 h and 24 h post injection. Images were acquired for 60 to 90 s with a high-resolution scintigraphic camera equipped with a square tungsten collimator integrated with a CsI(Tl) scintillation structure, coupled to a Hamamatsu […] Flat Panel Position Sensitive Photomultiplier Tube (PSPMT), a pure tungsten shielding housing, a charge readout electronics, and a data acquisition system for online image display. Region of interest (ROI) analysis was performed by drawing a region over the visible tumor (target) and copying it to the opposite thigh (background). The counts in the tumor ROI divided by the counts in the background ROI provided tumor-to-background (T/B) ratios. After each imaging session, mice were euthanized. The organs and the tumors were excised and weighed, and the radioactivity was determined using a single well γ-counter. Results were expressed as percentage of injected dose per gram (%ID/g) of tissue.

Series [2] has as its target T1, gastrin-releasing peptide receptor (GRP-R) on PC-3 human prostate cancer cells (Homo sapiens, UniProt P30550).
T1 construct: endogenous in cells; host or cells: PC-3 human prostate cancer cells
As to the kind of experiment: Saturation binding experiments on whole PC-3 cells with 111In-labeled DOTA-PEG4-BN conjugates. The note with it: 4 °C; for B max (binding sites/cell) *10^5: 111In-labeled. The protocol: DOTA-PEG4-BN conjugates were studied in vitro performing saturation binding experiments on whole cells. The DOTA coupled derivatives were labeled in Eppendorf tubes containing 10 μL of ^111InCl3 (50–150 KBq/μL), 1 nmol of peptide (10 μM final concentration), and sodium acetate buffer (0.4 M, pH 5) adjusted to a final volume of 100 μL. The solution was incubated for 30 min at 95 °C in a heating block. Silica gel thin layer chromatography using 0.1 N sodium citrate (pH 5) as mobile phase was utilized for quality control. […] Saturation of free chelators with cold indium was not performed. Confluent PC-3 human prostate cancer cells were seeded in six-well plates (~1.0 × 10^6 cells) 24 h before starting the experiments. Increasing concentrations of the ^111In-DOTA-peptide ranging from 50 to 0.05 nM were assigned to different wells. For blocking experiments, excess of the respective unlabeled peptide was used. For each radioligand, triplicates were prepared for every concentration, for both total binding and nonspecific binding. Before adding the radioligands to the wells, the plates were placed on ice for 30 min. After adding the radioligands and the blocking for nonspecific binding, the plates were incubated for 1 h at 4 °C. Afterwards, the binding buffer was removed and the cells were washed twice with ice-cold phosphate-buffered saline (PBS; pH 7.4). Cell-bound radioactivity was subsequently recovered by trypsinization of the wells. Radioactivity in the bound and free fractions was determined with a WIZARD gamma counter (Wallac, Turku, Finland). Specific binding was calculated by subtracting nonspecific from total binding at each concentration of radioligand. Affinity (Kd) and binding site density (Bmax) were calculated from Scatchard plots using Prism software (GraphPad Software Inc.).
Saturation binding experiments were performed on PC-3 cells at 4 °C.

Series [3] in a line: Serum stability of 177Lu-labeled peptides in human serum. In kind it is in vitro ADME. The note with it: human serum (freshly prepared), 37 °C. The protocol:
Quality controls to determine the labeling yield and the radiochemical purity were performed using radio-HPLC. Radiolabeled peptides were utilized without further purification. […] The mixture was incubated in a 5 % CO2, 37 °C. At different time points, 100 μL aliquots (in triplicates) were removed and treated with 200 μL of EtOH to precipitate serum proteins. Samples were then centrifuged for 15 min at 5000 rpm (2655g). After centrifugation, 50 μL of supernatant was removed and counted in a γ-well counter; the sediment was washed twice with 1 mL of EtOH and counted. The activity in the supernatant was compared with the activity in the pellet to obtain the percentage of peptide not bound to proteins or radiometal transferred to serum proteins. The supernatant was also analyzed with radio-HPLC (eluents: A = 0.1 % trifluoroacetic acid in water and B = acetonitrile; gradient 0–25 min 95–50 % B) to determine the relative amount of intact peptide and its metabolites in the serum. The half-life was calculated fitting a first-order reaction to the experimental data (Equation 1) using Prism software (GraphPad Software Inc.).

For series [4], the system named is PC-3 xenografts. Nature of the series: Gamma camera planar imaging, tumor-to-background ROI analysis in mice with PC-3 xenografts. It is filed as in vivo, CD1 nude mice. The protocol:
as §1, with “Region of interest (ROI) analysis was performed by drawing a region over the visible tumor (target) and copying it to the opposite thigh (background). The counts in the tumor ROI divided by the counts in the background ROI provided tumor-to-background (T/B) ratios. After each imaging session, mice were euthanized.” left out

Series [5] is described as follows: Biodistribution in nude mice bearing subcutaneous PC-3 xenografts. In kind it is in vivo, CD1 nude mice. The note with it: female, CD1 nude, mouse, blood, iv, 0.25 μg, total radioactivity; 111In-labeled, 1 h post injection. The protocol: as §1
The mark [6] stands for this setting: 111In-labeled, i.v., 1, 6, 24 h.
[7] abbreviates: first-order fit, read-out: Serum half-life (converted).

The structures appear in SMILES notation. Where two headings read alike, the source gives them in different places. Where a SMILES comes first, the peptide text is derived from it. [ ]: non-standard residue; d: D form. The star is where a group is joined. DOTA = O=C(O)CN1CCN(CC(=O)O)CCN(CC(=O)*)CCN(CC(=O)O)CC1; Sta = CC(C)C[C@H](N)[C@@H](O)CC(=O)O; Cha = N[C@@H](CC1CCCCC1)C(=O)O; Nle = CCCC[C@H](N)C(=O)O; AEEA = NCCOCCOCC(=O)O; Sar = CNCC(=O)O A value given as a limit tells only on which side of the number the result lay.

T1 sequence (P30550 whole entry): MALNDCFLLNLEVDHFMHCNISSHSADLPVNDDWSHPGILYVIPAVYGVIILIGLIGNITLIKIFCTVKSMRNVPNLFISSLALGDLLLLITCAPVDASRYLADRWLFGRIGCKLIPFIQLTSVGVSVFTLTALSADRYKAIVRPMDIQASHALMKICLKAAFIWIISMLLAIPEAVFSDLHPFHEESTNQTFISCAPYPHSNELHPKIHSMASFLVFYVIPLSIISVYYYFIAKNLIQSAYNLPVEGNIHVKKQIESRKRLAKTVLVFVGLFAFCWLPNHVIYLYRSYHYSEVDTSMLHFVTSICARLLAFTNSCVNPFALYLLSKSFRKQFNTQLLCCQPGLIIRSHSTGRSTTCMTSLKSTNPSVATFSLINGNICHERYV

Consider `CSCC[C@H](NC(=O)[C@H](CC(C)C)NC(=O)[C@H](Cc1c[nH]cn1)NC(=O)CNC(=O)[C@@H](NC(=O)[C@H](C)NC(=O)[C@H](Cc1c[nH]c2ccccc12)NC(=O)[C@H](CCC(N)=O)NC(=O)COCCOCCNC(=O)COCCOCCNC(=O)CN1CCN(CC(=O)O)CCN(CC(=O)O)CCN(CC(=O)O)CC1)C(C)C)C(N)=O` [BN1], for which the “Tumor targeting / uptake in PC-3 xenografts (in words)” value (“Tumor targeting / uptake” for short) with PC-3 xenografts [1] (setting [6]) is on record as “rather poor”. For the same molecule, the “Blood clearance / circulating half-life (in words)” value with PC-3 xenografts [1] (mouse, in vivo, iv) is on record as “very rapid blood clearance”. Moreover, in series [2], the “B max (binding sites/cell) *10^5” value turned out to be 2.45 ± 0.73 binding sites/cell *10^5.
Turning to `CCCC[C@H](NC(=O)[C@H](CC1CCCCC1)NC(=O)[C@H](Cc1c[nH]cn1)NC(=O)CNC(=O)[C@@H](NC(=O)[C@H](C)NC(=O)[C@H](Cc1c[nH]c2ccccc12)NC(=O)[C@H](CCC(N)=O)NC(=O)COCCOCCNC(=O)COCCOCCNC(=O)CN1CCN(CC(=O)O)CCN(CC(=O)O)CCN(CC(=O)O)CC1)C(C)C)C(N)=O` [BN2, -Gln-Trp-Ala-Val-Gly-His-Cha-Nle-NH2] ({DOTA-AEEA-AEEA}-QWAVGH[Cha][Nle]-NH2), the half-life at 0.6 nmol/mL in series [3] (setting [7]) was roughly 20 h. Also, the “B max (binding sites/cell) *10^5” value in series [2] is 4.10 ± 1.23 binding sites/cell *10^5.
Turning to `CCCC[C@H](NC(=O)[C@H](CC1CCCCC1)NC(=O)[C@H](Cc1c[nH]cn1)NC(=O)CNC(=O)[C@@H](NC(=O)[C@H](C)NC(=O)[C@H](Cc1c[nH]c2ccccc12)NC(=O)[C@H](CCC(N)=O)NC(=O)COCCOCCNC(=O)COCCOCCNC(=O)CN1CCN(CC(=O)O)CCN(CC(=O)O)CCN(CC(=O)O)CC1)C(C)C)C(=O)N[C@@H](CCC(=O)O)C(N)=O` [BN3, -Gln-Trp-Ala-Val-Gly-His-Cha-Nle-Glu-NH2] ({DOTA-AEEA-AEEA}-QWAVGH[Cha][Nle]E-NH2), in series [3] (setting [7]), the half-life at 0.6 nmol/mL was 40.7 h. In addition, in series [2], the “Specific binding to PC-3 cells (in words)” value was “no specific binding was detectable”.
In the case of `CC(C)C[C@H](NC(=O)C[C@H](O)[C@H](CC(C)C)NC(=O)[C@H](Cc1c[nH]cn1)NC(=O)CNC(=O)[C@@H](NC(=O)[C@H](C)NC(=O)[C@H](Cc1c[nH]c2ccccc12)NC(=O)[C@H](CCC(N)=O)NC(=O)COCCOCCNC(=O)COCCOCCNC(=O)CN1CCN(CC(=O)O)CCN(CC(=O)O)CCN(CC(=O)O)CC1)C(C)C)C(N)=O` [BN4, -Gln-Trp-Ala-Val-Gly-His-Sta-Leu-NH2] ({DOTA-AEEA-AEEA}-QWAVGH[Sta]L-NH2), the “Tumor-to-background (T/B) ratios in vivo (in words)” value in the series with PC-3 xenografts [4] (111In-labeled, tumor ROI vs opposite thigh) is “least favorable of all peptides”. Besides, in the series on PC-3 xenografts [1] (setting [6]), the “Blood clearance / circulating half-life (in words)” value is reported as “longest circulating half-life of all tested compounds” and the “Tumor targeting / uptake” value is listed as “very high initial uptake that dropped at later time points”. Further, the tissue uptake – broadly, the share of the injected amount in each gram of the tissue – at 1 h in series [5] is roughly 5 %ID/g. Also, the half-life at 0.6 nmol/mL in series [3] (setting [7]) was 224 h. The “B max (binding sites/cell) *10^5” value in series [2] came out at 5.54 ± 1.56 binding sites/cell *10^5.
Regarding `CC(C)C[C@H](NC(=O)C[C@H](O)[C@H](CC(C)C)NC(=O)[C@H](Cc1c[nH]cn1)NC(=O)CN(C)C(=O)[C@@H](NC(=O)[C@H](C)NC(=O)[C@H](Cc1c[nH]c2ccccc12)NC(=O)[C@H](CCC(N)=O)NC(=O)COCCOCCNC(=O)COCCOCCNC(=O)CN1CCN(CC(=O)O)CCN(CC(=O)O)CCN(CC(=O)O)CC1)C(C)C)C(N)=O` [BN5, -Gln-Trp-Ala-Val-NMeGly-His-Sta-Leu-NH2] ({DOTA-AEEA-AEEA}-QWAV[Sar]H[Sta]L-NH2), the “B max (binding sites/cell) *10^5” value in series [2] is 1.56 ± 0.39 binding sites/cell *10^5.
As to `CC(C)C[C@H](NC(=O)C[C@H](O)[C@H](CC(C)C)NC(=O)[C@H](Cc1c[nH]cn1)NC(=O)CNC(=O)[C@@H](NC(=O)[C@H](C)NC(=O)[C@H](Cc1c[nH]c2ccccc12)NC(=O)[C@H](CCC(N)=O)NC(=O)[C@@H](Cc1ccccc1)NC(=O)COCCOCCNC(=O)COCCOCCNC(=O)CN1CCN(CC(=O)O)CCN(CC(=O)O)CCN(CC(=O)O)CC1)C(C)C)C(N)=O` [BN6, -DPhe-Gln-Trp-Ala-Val-Gly-His-Sta-Leu-NH2], the half-life at 0.6 nmol/mL in series [3] (setting [7]) was 208 h.
Regarding `CCCC[C@H](NC(=O)[C@H](CC1CCCCC1)NC(=O)[C@H](Cc1c[nH]cn1)NC(=O)CNC(=O)[C@@H](NC(=O)[C@H](C)NC(=O)[C@H](Cc1c[nH]c2ccccc12)NC(=O)[C@H](CCC(N)=O)NC(=O)[C@@H](Cc1ccccc1)NC(=O)COCCOCCNC(=O)COCCOCCNC(=O)CN1CCN(CC(=O)O)CCN(CC(=O)O)CCN(CC(=O)O)CC1)C(C)C)C(N)=O` [BN7, -DPhe-Gln-Trp-Ala-Val-Gly-His-Cha-Nle-NH2], in the series on PC-3 xenografts [1] (setting [6]), the “Blood clearance / circulating half-life (in words)” value was “very rapid blood clearance” and the “Tumor targeting / uptake” value is given as “overall poor targeting to the receptor-positive xenografts”. In addition, the half-life at 0.6 nmol/mL in series [3] (setting [7]) is roughly 20 h.
`CC(C)C[C@H](NC(=O)C[C@H](O)[C@H](CC(C)C)NC(=O)[C@H](Cc1c[nH]cn1)NC(=O)CN(C)C(=O)[C@@H](NC(=O)[C@H](C)NC(=O)[C@H](Cc1c[nH]c2ccccc12)NC(=O)[C@H](CCC(N)=O)NC(=O)[C@@H](Cc1ccccc1)NC(=O)COCCOCCNC(=O)COCCOCCNC(=O)CN1CCN(CC(=O)O)CCN(CC(=O)O)CCN(CC(=O)O)CC1)C(C)C)C(N)=O` [BN8, DOTA-PEG-DPhe-Gln-Trp-Ala-Val-NMeGly-His-Sta-Leu-NH2]: the “Imaging contrast of tumor uptake (in words)” value with PC-3 xenografts [4] (gamma camera, 6 h post injection) is “best contrast of tumor uptake compared to other organs”. Also, the “Tumor targeting / uptake” value in the series with PC-3 xenografts [1] (setting [6]) is given as “highest tumor uptake”. Also, the half-life at 0.6 nmol/mL in series [3] (setting [7]) was 414 h; in series [3] (read-out: Serum/plasma half-life), greater than 360 h.
